Literature values, collected in patent US20030180823A1, “Individualization of therapy with antihistamines” (Xanthus Life Sciences, Inc., priority 2001, published 2003).

System: skin tests
Settings: very long half-life

In the case of `COc1ccc(CCN2CCC(Nc3nc4ccccc4n3Cc3ccc(F)cc3)CC2)cc1` [Astemizole], the “duration of inhibiting skin tests” value is given as “up to 6 weeks”.
